From patent US20230017045A1, “PYRIDINE AND PYRIMIDINE CARBOXYLATE HERBICIDES AND METHODS OF USE THEREOF” (Dow AgroSciences LLC, priority 2017, published 2023)
Read-outs that look alike come from different tables or passages of the source.

System: test plant species
Assay: Post-emergent herbicidal activity test (greenhouse, foliar spray, visual growth reduction)
Type: in vivo
Settings: post-emergence, 336 h, 140 g ai/ha
Description: Post-emergent Test: Seeds or nutlets of the desired test plant species were planted in Sun Gro Metro-Mix® 360 planting mixture, which typically has a pH of 6.0 to 6.8 and an organic matter content of about 30 percent, in plastic pots with a surface area of 64 square centimeters. In some aspects, to ensure good germination and healthy plants, a fungicide treatment and/or other chemical or physical treatment was applied. The plants were grown for 7-21 d in a greenhouse with an approximate 15 h photoperiod which was maintained at 23-29° C. during the day and 22-28° C. during the night. Nutrients and water were added on a regular basis and supplemental lighting was provided with overhead metal halide 1000-Watt lamps as necessary. Plants were used for testing when they reached the first or second true leaf stage. A weighed amount, determined by the highest rate to be tested, of each test compound was placed in a 25 mL glass vial and was dissolved in 4 mL of a 97:3 v/v mixture of acetone and DMSO to obtain concentrated stock solutions. […] The concentrated stock solutions obtained were diluted with 20 mL of an aqueous mixture containing acetone, water, isopropyl alcohol, DMSO, […] crop oil concentrate, and X-77 surfactant in a 48.5:39:10:1.5:1.0:0.02 v/v ratio to obtain spray solutions containing the application rate. Compound requirements are based upon a 12 mL application volume at a rate of 187 liters per hectare (L/ha). Formulated compounds were applied to the plant material with an overhead Mandel track sprayer equipped with […] nozzles calibrated to deliver 187 L/ha over an application area of 0.64 square meters at a spray height of 18 inches (43 cm) above the average plant canopy height. Control plants were sprayed in the same manner with the solvent blank. The treated plants and control plants were placed in a greenhouse as described above and watered by subirrigation to prevent wash-off of the test compounds. After 14 d, the condition of the test plants as compared with that of the nontreated and control plants was determined visually and scored on a scale of 0 to 100 percent where 0 corresponds to no injury and 100 corresponds to complete control. In the reporting of the results, Table A: Percent Growth Reduction Conversion Table was used.

[1] = ECHCG: barnyardgrass (Echinochloa crus-galli), 14 days after application, read-out: Visual Growth Reduction (%) 14 Days After Application, ECHCG
[2] = IPOHE: ivy-leaf morning glory (Ipomoea hederacea), 14 days after application, read-out: Visual Growth Reduction (%) 14 Days After Application, IPOHE
[3] = KCHSC: kochia (Bassia scoparia), 14 days after application, read-out: Visual Growth Reduction (%) 14 Days After Application, KCHSC
[4] = ORYSA: rice (Oryza sativa), 14 days after application, read-out: Visual Growth Reduction (%) 14 Days After Application, ORYSA
[5] = SETFA: giant foxtail (Setaria faberi), 14 days after application, read-out: Visual Growth Reduction (%) 14 Days After Application, SETFA
[6] = SORVU: grain sorghum (Sorghum vulgare), 14 days after application, read-out: Visual Growth Reduction (%) 14 Days After Application, SORVU
[7] = STEME: common chickweed (Stellaria media), 14 days after application, read-out: Visual Growth Reduction (%) 14 Days After Application, STEME
[8] = TRZAS: wheat, spring (Triticum aestivum), 14 days after application, read-out: Visual Growth Reduction (%) 14 Days After Application, TRZAS
[9] = blackgrass (Alopecurus myosuroides), 14 Days After Application, read-out: Visual Growth Reduction (%) ALOMY
[10] = canada thistle (Cirsium arvense), 14 Days After Application, read-out: Visual Growth Reduction (%) CIRAR
[11] = crabgrass (Digitaria sanguinalis), 14 Days After Application, read-out: Visual Growth Reduction (%) DIGSA
[12] = lambsquarters (Chenopodium album), 14 Days After Application, read-out: Visual Growth Reduction (%) CHEAL
[13] = redroot pigweed (Amaranthus retroflexus), 14 Days After Application, read-out: Visual Growth Reduction (%) AMARE
[14] = wild oat (Avena fatua), 14 Days After Application, read-out: Visual Growth Reduction (%) AVEFA
[15] = yellow nutsedge (Cyperus esculentus), 14 Days After Application, read-out: Visual Growth Reduction (%) CYPES

SMILES | pest or weed control at 140 g/ha [1] [%] | pest or weed control at 140 g/ha [2] [%] | pest or weed control at 140 g/ha [3] [%] | pest or weed control at 140 g/ha [4] [%] | pest or weed control at 140 g/ha [5] [%] | pest or weed control at 140 g/ha [6] [%] | pest or weed control at 140 g/ha [7] [%] | pest or weed control at 140 g/ha [8] [%] | pest or weed control at 140 g/ha [9] [%] | pest or weed control at 140 g/ha [10] [%] | pest or weed control at 140 g/ha [11] [%] | pest or weed control at 140 g/ha [12] [%] | pest or weed control at 140 g/ha [13] [%] | pest or weed control at 140 g/ha [14] [%] | pest or weed control at 140 g/ha [15] [%] | further results
COC(=O)c1nc(-c2ccc(C(F)(F)F)cc2F)ncc1Cl [F312, Methyl 5-chloro-2-(2-fluoro-4-(trifluoromethyl)phenyl) pyrimidine-4-carboxylate] | 75 to 84 | 95 to 100 | 0 to 29 | 0 to 29 | 60 to 74 | 85 to 94 | 0 to 29 | 30 to 44 | 0 to 29 | 85 to 94 | 85 to 94 | 85 to 94 | 85 to 94 | 0 to 29 | 45 to 59 | 
COC(=O)c1nc(-c2ncc(Cl)cc2Cl)ccc1Cl [F191, Methyl 3′,5,5′-trichloro-[2,2′-bipyridine]-6-carboxylate] | 75 to 84 | 95 to 100 | 60 to 74 | 0 to 29 | 85 to 94 | 85 to 94 | 0 to 29 | 0 to 29 |  |  |  |  |  |  |  | pest or weed control at 140 g/ha (ALOMY: blackgrass (Alopecurus myosuroides), 14 days after application, read-out: Visual Growth Reduction (%) 14 Days After Application, ALOMY): 0 to 29%; pest or weed control at 140 g/ha (AMARE: redroot pigweed (Amaranthus retroflexus), 14 days after application, read-out: Visual Growth Reduction (%) 14 Days After Application, AMARE): 85 to 94%; pest or weed control at 140 g/ha (AVEFA: wild oat (Avena fatua), 14 days after application, read-out: Visual Growth Reduction (%) 14 Days After Application, AVEFA): 0 to 29%; pest or weed control at 140 g/ha (CHEAL: lambsquarters (Chenopodium album), 14 days after application, read-out: Visual Growth Reduction (%) 14 Days After Application, CHEAL): 95 to 100%; pest or weed control at 140 g/ha (CIRAR: canada thistle (Cirsium arvense), 14 days after application, read-out: Visual Growth Reduction (%) 14 Days After Application, CIRAR): 85 to 94%; pest or weed control at 140 g/ha (CYPES: yellow nutsedge (Cyperus esculentus), 14 days after application, read-out: Visual Growth Reduction (%) 14 Days After Application, CYPES): 45 to 59%; pest or weed control at 140 g/ha (DIGSA: crabgrass (Digitaria sanguinalis), 14 days after application, read-out: Visual Growth Reduction (%) 14 Days After Application, DIGSA): 85 to 94%
COC(=O)c1nc(-c2ccc(C(F)(F)F)c(Br)c2Cl)c(F)cc1Cl [F341, Methyl 6-(3-bromo-2-chloro-4-(trifluoromethyl)phenyl)-3-chloro-5-fluoropicolinate] | 0 to 29 | 95 to 100 | 60 to 74 | 0 to 29 | 85 to 94 | 95 to 100 | 30 to 44 | 45 to 59 | 30 to 44 |  | 85 to 94 | 85 to 94 | 95 to 100 | 45 to 59 | 0 to 29 | 
COC(=O)c1nc(-c2c(N)cc(C(F)(F)F)cc2Cl)ccc1Cl [F213, Methyl 6-(2-amino-6-chloro-4-(trifluoromethyl)phenyl)-3-chloropicolinate] | 0 to 29 | 95 to 100 | 60 to 74 | 0 to 29 | 30 to 44 | 60 to 74 | 0 to 29 | 0 to 29 | 0 to 29 | 0 to 29 | 30 to 44 | 85 to 94 | 45 to 59 | 0 to 29 | 0 to 29 | 
